Assay results reported in patent US8772511B2, “Azabicyclic carbamates and their use as alpha-7 nicotinic acetylcholine receptor agonists” (Bayer Intellectual Property GmbH, priority 2002, dated 2014).
Counter-ions that a name gives are not always drawn. Like-named read-outs stand apart in the source and are kept apart here.

What was measured:
α7 nAChR = α7 nAChR (Rattus norvegicus (Rat), UniProt Q05941); test: Affinity for α7 nAChR by inhibition of [3H]-methyllycaconitine binding to rat brain membranes
Description: 1. Determination of the Affinity of Test Substances for α7 nAChR by Inhibition of [^3H]-Methyllycaconitine Binding to Rat Brain Membranes
The [^3H]-methyllycaconitine binding assay is a modification of the method described by Davies et al. in Neuropharmacol. 1999, 38, 679-690.
Rat brain tissue (hippocampus or whole brain) is homogenized in aqueous homogenization buffer (10% w/v, 0.32 M sucrose, 1 mM EDTA, 0.1 mM phenylmethylsulfonyl fluoride (PMSF), 0.01% (w/v) NaN3, pH 7.4, 4° C.) at 600 rpm in a glass homogenizer. The homogenate is centrifuged (1000×g, 4° C., 10 min) and the supernatant is removed. The pellet is resuspended (20% w/v) and the suspension is centrifuged (1000×g, 4° C., 10 min). The two supernatants are combined and centrifuged (15 000×g, 4° C., 30 min). The pellet obtained in this way is referred to as the P2 fraction.
The P2 pellet is suspended in binding buffer (50 mM Tris-HCl, 1 mM MgCl2, 120 mM NaCl, 5 mM KCl, 2 mM CaCl2, pH 7.4), and the suspension is centrifuged (15 000×g, 4° C., 30 min), twice.
The residue is resuspended in binding buffer to a concentration of […] and incubated in a volume of 250 μl (amount of membrane protein 0.4 mg) in the presence of 2 nM [3H]-methyllyeaconitine, 0.1% (w/v) BSA (bovine serum albumin) and various concentrations of the test substance at 21° C. for 60 min.
Incubation is then carried out in the presence of 1 μM α-bungarotoxin or 100 μM nicotine or 10 μM MLA (methyllycaconitine). The incubation is stopped by adding 4 ml of PBS (20 mM Na2HPO4, 5 mM KH2PO4, 150 mM NaCl, pH 7.4, 4° C.) and filtering through type A/E glass fiber filters (Gelman Sciences) which have previously been placed in 0.3% (v/v) polyethyleneimine (PEI) for 3 h. The filters are washed twice with 4 ml of PBS (4° C.), and the bound radioactivity is determined by scintillation measurement. All the assays are carried out in triplicate. The dissociation constant Ki of the test substance was determined from the IC50 of the compounds (concentration of the test substance at which 50% of the ligand bound to the receptor is displaced), the dissociation constant KD and the concentration L of [^3H]-methyllycaconitine using the equation Ki=IC50/(1+L/KD).

[1] = biological target: recombinant human 5-HT3 receptor (Homo sapiens (Human), UniProt P46098); test: Affinity for 5-HT3 receptors through inhibition of [3H]GR65630 binding
Description: 2. Determination of the Affinity of Test Substances for 5-HT3 Receptors Through Inhibition of [^3H]GR65630 Binding
Membranes from HEK293 cells which express recombinant human 5-HT3 receptor (RB-HS3, Receptor Biology, Inc., MD, USA) are diluted in accordance with the manufacturer's instructions in incubation buffer (50 mM Iris base, pH 7.4, 5 mM MgCl2, 0.5 mM EDTA, 0.1% (w/v) ascorbic acid, 10 μM pargyline and incubated in a volume of 200 μl (amount of membrane protein 3 μg) in the presence of 0.5 nM of the selective 5-HT3 receptor radio ligand [^3H]-GR65630 (NET 1011, Du Pont) and various concentrations of the test substance at 21° C. for 60 min. The nonspecific binding is determined by incubation in the presence of 100 μM 5-HT (5-hydroxytryptamine). The incubation is stopped by filtering through type A/E glass fiber filters (Gelman Sciences) or GF/B filters (Whatman) which have previously been placed in 0.3% (v/v) polyethyleneimine (PEI) for at least 1 h. The filters are washed three times with 3 ml of washing buffer (50 mM Tris-HCl, pH 7.4; 4° C.), and the bound radioactivity is determined by scintillation measurement. All the assays are carried out in triplicate. The dissociation constant Ki of the test substance is determined from the IC50 of the compounds (concentration of the test substance at which 50% of the ligand bound to the receptor is displaced), the dissociation constant KD and the concentration L of [^3H]GR65630 (Ki=IC50/(1+L/KD)).

[2] = [3H]-methyllycaconitine displacement, rat brain membranes, read-out: Ki
[3] = [3H]GR65630 displacement, membranes from HEK293 cells expressing human 5-HT3 receptor, read-out: Ki

α7 nAChR, sequence (Q05941 23-502 limits assumed): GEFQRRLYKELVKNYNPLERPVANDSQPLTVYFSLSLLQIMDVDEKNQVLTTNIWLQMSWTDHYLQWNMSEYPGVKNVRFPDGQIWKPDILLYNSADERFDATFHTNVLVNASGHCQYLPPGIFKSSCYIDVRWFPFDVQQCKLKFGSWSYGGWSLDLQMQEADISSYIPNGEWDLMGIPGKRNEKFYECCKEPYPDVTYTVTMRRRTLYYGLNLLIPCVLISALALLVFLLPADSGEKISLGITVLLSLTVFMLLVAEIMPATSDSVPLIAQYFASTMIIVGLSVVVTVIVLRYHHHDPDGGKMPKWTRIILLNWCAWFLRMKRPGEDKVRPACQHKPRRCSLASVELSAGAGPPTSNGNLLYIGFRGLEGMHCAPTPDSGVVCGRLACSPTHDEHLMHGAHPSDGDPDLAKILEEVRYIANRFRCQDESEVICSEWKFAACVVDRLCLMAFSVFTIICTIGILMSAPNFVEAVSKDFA
recombinant human 5-HT3 receptor, sequence (P46098 24-478): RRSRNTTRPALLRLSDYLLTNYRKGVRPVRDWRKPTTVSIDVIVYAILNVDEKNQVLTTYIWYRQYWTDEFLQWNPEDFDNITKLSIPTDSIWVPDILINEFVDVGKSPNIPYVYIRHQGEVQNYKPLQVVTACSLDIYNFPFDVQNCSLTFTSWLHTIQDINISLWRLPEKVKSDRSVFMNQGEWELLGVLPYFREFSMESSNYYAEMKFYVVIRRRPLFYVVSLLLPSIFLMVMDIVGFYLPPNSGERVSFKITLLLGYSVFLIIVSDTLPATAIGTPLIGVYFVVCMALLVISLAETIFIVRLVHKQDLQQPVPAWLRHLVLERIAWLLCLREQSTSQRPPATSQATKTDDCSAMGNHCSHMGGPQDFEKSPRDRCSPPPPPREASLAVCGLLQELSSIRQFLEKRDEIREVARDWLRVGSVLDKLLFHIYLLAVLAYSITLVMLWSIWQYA

Structure (SMILES)	Ki (α7 nAChR; [2])	Ki [1]	Ki [1, 3]	Ki (α7 nAChR)
COc1ccc(NC(=O)Nc2ccc3cc(C(=O)N[C@H]4CN5CCC4CC5)sc3c2)cc1 [Example 4, N-[(3R)-1-Azabicyclo[2.2.2]oct-3-yl]-6-({[(4-methoxyphenyl)amino]carbonyl}-amino)-1-benzothiophene-2-carboxamide hydrochloride]	2.1 nM			
O=C(NCCc1ccccc1)Nc1ccc2cc(C(=O)N[C@H]3CN4CCC3CC4)sc2c1 [Example 5, N-[(3R)-1-Azabicyclo[2.2.2]oct-3-yl]-6-({[(2-phenylethyl)amino]carbonyl}amino)-1-benzothiophene-2-carboxamide hydrochloride]	22 nM	12000 nM		
N#Cc1cccc(NC(=O)Nc2ccc3cc(C(=O)N[C@H]4CN5CCC4CC5)sc3c2)c1 [Example 6, N-[(3R)-1-Azabicyclo[2.2.2]oct-3-yl]-6-({[(3-cyanophenyl)amino]carbonyl}amino)-1-benzothiophene-2-carboxamide hydrochloride]			1700 nM	7.9 nM
O=C(Nc1ccc2cc(C(=O)N[C@H]3CN4CCC3CC4)sc2c1)Nc1c(F)cccc1F [Example 11, N-[(3R)-1-Azabicyclo[2.2.2]oct-3-yl]-6-({[(2,6-difluorophenyl)amino]carbonyl}-amino)-1-benzothiophene-2-carboxamide hydrochloride]			5500 nM	0.4 nM
COc1cc(NC(=O)Nc2ccc3cc(C(=O)N[C@H]4CN5CCC4CC5)sc3c2)cc(OC)c1OC [Example 14, N-[(3R)-1-Azabicyclo[2.2.2]oct-3-yl]-6-({[(3,4,5-trimethoxyphenyl)amino]-carbonyl}amino)-1-benzothiophene-2-carboxamide hydrochloride]		6900 nM		
COc1cccc(NC(=O)Nc2ccc3cc(C(=O)N[C@H]4CN5CCC4CC5)sc3c2)c1 [Example 16, N-[(3R)-1-Azabicyclo[2.2.2]oct-3-yl]-6-[({[3-methoxyphenyl]amino}carbonyl)-amino]-1-benzothiophene-2-carboxamide hydrochloride]			2100 nM	4.3 nM
O=C(Nc1ccccc1)Nc1cccc2cc(C(=O)N[C@H]3CN4CCC3CC4)sc12 [Example 21, 7-[(Anilinocarbonyl)amino]-N-[(3R)-1-azabicyclo[2.2.2]oct-3-yl]-1-benzothiophene-2-carboxamide hydrochloride]			1600 nM	15 nM
COc1ccc(NC(=O)Nc2ccc3cc(C(=O)N[C@H]4CN5CCC4CC5)oc3c2)cc1 [Example 22, N-[(3R)-1-Azabicyclo[2.2.2]oct-3-yl]-6-({[(4-methoxyphenyl)amino]carbonyl}-amino)-1-benzofuran-2-carboxamide hydrochloride]	< 1 nM			
